Assay results published in US20110165115A1, “SYNERGISTIC ATTRACTANTS FOR PESTIFEROUS SOCIAL INSECTS” (STERLING INTERNATIONAL INC., priority 2010, published 2011).

Assays:
[1] = test system: V. pensylvanica; test: Field trapping Experiment 1, Rescue W•H•Y traps; type: in vivo, Vespula pensylvanica; conditions: Exp 1; HIPV added to WHY attractant in the top chamber, or WHY alone
Experimental: (§1) Three field trapping experiments were carried out during late July to early August 2009, in residential and woody areas around Spokane, Wash., USA, using the newly marketed Rescue® W•H•Y traps (www.rescue.com). As used herein, the W•H•Y trap is a trap in accordance with the description of United States Patent Application Publication No. 2009/0151228. The W•H•Y trap has a top chamber and a bottom chamber. The top chamber is baited with two attractants—one of which is a solid contained in a vial (2-methyl-1-butanol) and the other a liquid mixed with water (acetic acid), herein referred to as the W•H•Y top attractant. The bottom chamber is baited with a liquid attractant (heptyl butyrate) poured onto a cotton pad, herein referred to as the W•H•Y bottom attractant. Separation of the top and bottom attractants (otherwise antagonistic to each other when released from the same chamber) in two chambers was a design feature of this trap and creates two focal attraction sources from one trap for different species of wasps, hornets, and yellowjackets. Traps were hung 1.5-2.0 m above the ground on either the fence or tree branches ca. 5 m apart within each trap line. For each trapping experiment, six sets of traps were deployed with their initial trap positions within each set being randomized. To minimize positional effects and obtain more replications, wasp collections and trap re-randomization were carried out when ≧10-20 wasps were caught in the best trap. Each replicate lasted several days depending on wasp flight activity. Captured wasps were removed from the traps and kept in the zip-bags before taking back to the laboratory for recording of the species, gender status, and catch.
(§2) Experiment 3 (Aug. 5-13, 2009) was conducted to determine the potential behavioral activity of different doses of (E)-4,8-dimethyl-1,3,7-nonatriene alone. The individual (or different doses) HIPVs were loaded into either polyethylene bags or centrifuge tube type of dispensers, and released from the top of the W•H•Y trap chamber. W•H•Y trap attractants (both top and bottom or top only) alone and water (top chamber only) were included in the test as positive and blank controls, respectively. The dispenser types, loading and release rates of the tested semiochemicals are described in Tables 1, 2 and 3.
(§3) Trap catch data were converted to proportion (P) of total captured wasps within each replicate. Data were then transformed by arcsin√P to meet the assumptions of normality and homogeneity of variances for ANOVA. Means were compared by ANOVA followed by the Ryan-Einot-Gabriel-Welsh (REGW) multiple Q test (SPSS 16.0 for Windows) at α=0.05.

[2] = test system: V. vulgaris; test: Field trapping Experiment 1, Rescue W•H•Y traps; type: in vivo, Vespula vulgaris; conditions: Exp 1; HIPV added to WHY attractant in the top chamber, or WHY alone
Experimental: as §1, §2, §3

[3] = test system: D. maculata; test: Field trapping Experiment 1, Rescue W•H•Y traps; type: in vivo, Dolichovespula maculata; conditions: Exp 1; HIPV added to WHY attractant in the top chamber, or WHY alone
Experimental: as §1
(§4) Experiment 1 (Jul. 22-30, 2009) tested ten synthetic HIPV candidates [(E)-2-hexenal, (Z)-3-hexen-1-ol, (Z)-3-hexenyl acetate, cis-ocimene, linalool, methyl salicylate, geranyl acetate, trans-β-caryophyllene, trans-β-farnesene and (E)-4,8-dimethyl-1,3,7-nonatriene], including several paper wasp EAD-active compounds (see FIG. 2 for details), to determine their potential synergistic effect on the Rescue® W•H•Y trap attractants to paper wasps, yellowjackets, and hornets. Experiment 2 (Aug. 5-13, 2009) tested behavioral responses of the paper wasps and yellowjackets to the Rescue® W•H•Y trap attractants (top attractants only) and its combination with (E)-4,8-dimethyl-1,3,7-nonatriene, one of the EAD-active and behaviorally significant HIPVs, in a dose-response fashion. Experiment 3 (Aug. 5-13, 2009) was conducted to determine the potential behavioral activity of different doses of (E)-4,8-dimethyl-1,3,7-nonatriene alone. The individual (or different doses) HIPVs were loaded into either polyethylene bags or centrifuge tube type of dispensers, and released from the top of the W•H•Y trap chamber. W•H•Y trap attractants (both top and bottom or top only) alone and water (top chamber only) were included in the test as positive and blank controls, respectively. The dispenser types, loading and release rates of the tested semiochemicals are described in Tables 1, 2 and 3.
as §3

[4] = test system: D. arenaria; test: Field trapping Experiment 1, Rescue W•H•Y traps; type: in vivo, Dolichovespula arenaria; conditions: Exp 1; HIPV added to WHY attractant in the top chamber, or WHY alone
Experimental: as §1, §4, §3

[5] = test system: V. atropilosa; type: in vivo, Vespula atropilosa; conditions: Exp 1; HIPV added to WHY attractant in the top chamber, or WHY alone
Experimental: as §1, with “catch. […]” for “catch.”
as §3

[6] = test system: V. acadica; test: Field trapping Experiment 1, Rescue W•H•Y traps; type: in vivo, Vespula acadica; conditions: Exp 1; HIPV added to WHY attractant in the top chamber, or WHY alone
Experimental: as §1, §2, §3

[7] = test system: V. consobrina; type: in vivo, Vespula consobrina; conditions: Exp 1; HIPV added to WHY attractant in the top chamber, or WHY alone
Experimental: as §1, with “catch. […]” for “catch.”
as §3

[8] = test system: P. dominulus; test: Field trapping Experiment 1, Rescue W•H•Y traps; type: in vivo, Polistes dominulus; conditions: Exp 1; HIPV added to WHY attractant in the top chamber, or WHY alone
Experimental: as §1, §2, §3

[9] = test system: P. aurifer; test: Field trapping Experiment 1, Rescue W•H•Y traps; type: in vivo, Polistes aurifer; conditions: Exp 1; HIPV added to WHY attractant in the top chamber, or WHY alone
Experimental: as §1, §2, §3

[10] = test system: P. dominulus workers antennae; test: GC-EAD of synthetic mixture of known HIPVs; parameters: species or system Polistes dominulus; conditions: 100 ng/μl each in hexane
Experimental: Aeration samples of the cherry branches (damaged or undamaged/slightly damaged) were injected (3 μl) splitless into a Varian CP-3800 GC equipped with a polar column (HP-INNOWax; 30 m×0.53 mm×1.0 μm film thickness; Agilent Technologies, Wilmington, Del., USA) and a 1:1 effluent splitter that allowed simultaneous flame ionization detection (FID) and electroantennographic detection (EAD) of the European paper wasp (Polistes dominulus) worker antennae to the separated volatile compounds. Helium was used as the carrier gas, and the injector and detector temperatures were 250° C. and 300° C., respectively. Column temperature was 50° C. for 1 min, rising to 240° C. at 10° C./min, and then held for 10 min. The outlet for the EAD was held in a humidified air stream flowing at 0.5 m/sec over the antennal preparation. EAD recordings were made using silver wire-glass capillary electrodes filled with Beadle-Ephrussi Ringer on freshly cut antennae. The antennal signals were stored and analyzed on a PC equipped with a serial IDAC interface box and the program EAD ver. 2.5 (Syntech, Hilversum, The Netherlands). In addition, GC-EAD responses to a synthetic mixture (100 ng/μl each) containing nine known HIPVs including cis-3-hexen-1-ol, cis-3-hexenyl acetate, trans-β-ocimene, (E)-4,8-dimethyl-1,3,7-nonatriene, linalool, methyl salicylate, geranyl acetate, trans-β-caryophyllene and trans-β-farnesene were tested on the P. dominulus workers. (See FIG. 2.) The same chemicals were also tested on beneficial insect antennae from Chrysopa oculata, Myrmeleon crudelis, Podisus maculiventris, and Hippodarnia convergens. (See FIG. 6.) Antennally active peaks in the aeration samples were identified by GC-MS on an HP 6890 GC series coupled with an HP 5973 Mass Selective Detector using the same type of GC column and conditions as described above. Compounds were identified by comparison of retention times with those of authentic standards and with mass spectra of standards.

[11] = test system: V. pensylvanica; conditions: background; cited from earlier work
[12] = test system: yellowjackets; test: Field trapping Experiment 1, top chamber catches; type: in vivo; conditions: Exp 1; HIPV combined with W•H•Y attractant (acetic acid and 2-methyl-1-butanol) in the top chamber
Experimental: as §1
Experiment 3 (Aug. 5-13, 2009) was conducted to determine the potential behavioral activity of different doses of (E)-4,8-dimethyl-1,3,7-nonatriene alone. The individual (or different doses) HIPVs were loaded into either polyethylene bags or centrifuge tube type of dispensers, and released from the top of the W•H•Y trap chamber. […]

[13] = test system: Polistes dominulus worker antennae; test: GC-EAD of cherry branch aeration samples; conditions: aeration of severely damaged cherry branches; at current release rates
Experimental: Lapin cherry branches with severely damaged cherries and leaves and undamaged or slightly damaged branches were collected from a cherry orchard at Creston, Canada, on Jul. 29, 2009, and were transported to the Sterling International, Inc. lab (Spokane, Wash.) on the same day and kept at 4° C. before aerations. Headspace volatiles from the cherry branches (damaged or undamaged) were sampled by a battery operated pump and a high density polyacetate oven bag (48.2×59.6 cm Reynolds® Oven Bag; Richmond, Va., USA) enclosure with one activated charcoal filter tube in the air inlet, on Jul. 30, 2009. The volatiles in the enclosure were trapped on one Porapak Q tube (50/80 mesh; 30 mg in Teflon tube: 3 mm×35 mm) for 2.5 hr (airflow 300 ml/min) and extracted with 1 ml redistilled pentane. Aeration samples of the cherry branches (damaged or undamaged/slightly damaged) were injected (3 μl) splitless into a Varian CP-3800 GC equipped with a polar column (HP-INNOWax; 30 m×0.53 mm×1.0 μm film thickness; […] Helium was used as the carrier gas, and the injector and detector temperatures were 250° C. and 300° C., respectively. Column temperature was 50° C. for 1 min, rising to 240° C. at 10° C./min, and then held for 10 min. The outlet for the EAD was held in a humidified air stream flowing at 0.5 m/sec over the antennal preparation. EAD recordings were made using silver wire-glass capillary electrodes filled with Beadle-Ephrussi Ringer on freshly cut antennae. The antennal signals were stored and analyzed on a PC equipped with a serial IDAC interface box and the program EAD ver. 2.5 (Syntech, Hilversum, The Netherlands). […] (See FIG. 2.) The same chemicals were also tested on beneficial insect antennae from Chrysopa oculata, Myrmeleon crudelis, Podisus maculiventris, and Hippodarnia convergens. (See […] active peaks in the aeration samples were identified by GC-MS on an HP 6890 GC series coupled with an HP 5973 Mass Selective Detector using the same type of GC column and conditions as described above. Compounds were identified by comparison of retention times with those of authentic standards and with mass spectra of standards.

[14] = test system: V. vidua; conditions: background; cited from earlier work
[15] = test system: yellowjackets occurring in the Eastern United States, hornets and paper wasps; conditions: background; cited from earlier work

SMILES	Total Yellowjacket Catches V. pensylvanica [1]	Total Yellowjacket Catches V. vulgaris [2]	Total Yellowjacket Catches D. maculata [3]	Total Yellowjacket Catches D. arenaria [4]	Total Yellowjacket Catches V. atropilosa [5]	Total Yellowjacket Catches V. acadica [6]	Total Yellowjacket Catches V. consobrina [7]	Total Paper Wasps P. dominulus [8]	Total Paper Wasps P. aurifer [9]	EAD response of worker antennae [10]	attraction [11]	effect on trap catches of yellowjackets in the top chambers [12]	EAD response of worker antennae [13]	attraction [14]	attraction [15]
C=C1CC/C=C(\C)CC[C@@H]2[C@@H]1CC2(C)C (relative stereo) [β-Caryophyllene, trans-β-caryophyllene]	234	51	0	5	1	2	1	35	12	No repeatable EAD-responses					
CC=CC=CCOC(=O)CCC [2,4-hexadienyl butyrate]											powerfully attractive				
C=CC(=C)CC/C=C(\C)CCC=C(C)C [E-β-Farnesene, trans-β-farnesene]	321	36	8	10	1	0	0	29	13	No repeatable EAD-responses					
C=C/C(C)=C/CC=C(C)C [Ocimene, cis-ocimene]	402	52	17	11	2	0	0	29	17			significant synergistic effect	did not elicit significant EAD-responses		
CCCCC/C=C\C=C\C(=O)OCC [ethyl (E,Z)-2,4-decadienoate]														attracted	
CCCCCCCOC(=O)CCC [heptyl butyrate]											as attractive				ineffective
